In US6337417B1, “N-phenyltetrahydrophthalamic acid derivatives, methods of producing same, and herbicides containing same as effective components” (Central Glass Co., Ltd., priority 1994, dated 2002):

What was measured:
Type in all cases: in vivo
Design in all cases: key: 5: completely killed; 4: seriously injured; 3: considerably injured; 2: somewhat injured; 1: slightly injured; 0: not injured (normally grown)
[1] = test system: paddy rice; test: Experiment 7 flooded soil treatment: injury to paddy rice; details: evaluated 4 weeks after treatment
From the text: (§1) Paddy soil (clay loam) was put into a pot so as to have a surface area of 1/15500 ares. Uniformly mixed seeds of several kinds of weeds, viz., nobie (barnyardgrass, Echinochloa spp.), broad-leaved weeds, hotarui (bulrush, Scirpus juncoides) and tamagayatsuri (small-flowered umbrellaplant, Cyperus difformis), were sown in the surface layer of the soil in each pot, and then paddy rice seedlings at the two- or three-leaved stage were transplanted into each pot to a depth of 2 cm, and water was fed into each pot so as to provide a 3 cm deep water layer on the soil surface. After 3 days, in other words at the initial stage of germination of nobie (barnyardgrass, Echinochloa spp.), a predetermined amount of a selected compound obtained in a manner analogous to Example 14 in the form of diluted aqueous solution was dropped into the water layer in each pot. After that, the pots were kept in a glass chamber to allow the paddy rice and the weeds to grow, and after the lapse of 4 weeks from the treatment with the selected compounds, the herbicidal effects and the degree of injury to the paddy rice were evaluated. The evaluation of the herbicidal effects was similarly conducted as that of Experiment 1.

[2] = test system: nobie (barnyardgrass, Echinochloa spp.); test: Experiment 7 flooded soil treatment: nobie; details: evaluated 4 weeks after treatment
From the text: as §1

[3] = test system: broad-leaved weeds; test: Experiment 7 flooded soil treatment: broad-leaved weeds; details: evaluated 4 weeks after treatment
From the text: as §1

[4] = test system: hotarui (bulrush, Scirpus juncoides); test: Experiment 7 flooded soil treatment: hotarui; details: evaluated 4 weeks after treatment
From the text: as §1

[5] = test system: tamagayatsuri (small-flowered umbrellaplant, Cyperus difformis); test: Experiment 7 flooded soil treatment: tamagayatsuri; details: evaluated 4 weeks after treatment
From the text: as §1

[6] = test system: rice; test: Experiment 8 foliage treatment: rice; details: foliage spray of wettable powder suspension, evaluated 4 weeks after treatment
Procedure: (§2) Upon seedling stage (two- or three-leaved stage) of rice, cockspur (Panicum crus-galli), garden radish, aobiyu (slender amaranth, Amaranthus viridis) and mehishiba (henry crabgrass, Digitaria cliaris) which were grown on a cultivated soil put in pots of 1/15500 ares, a selected compound obtained in a manner analogous to Example 14, in suspended wettable powder, was sprayed to each plant. After that, the pots were kept in a glass chamber to allow each plant to grow, and after the lapse of 4 weeks from the treatment with the selected compounds the herbicidal effects were evaluated. The evaluation of the herbicidal effects was similarly conducted as to that of Experiment 1.

[7] = test system: cockspur (Panicum crus-galli); test: Experiment 8 foliage treatment: cockspur; details: foliage spray of wettable powder suspension, evaluated 4 weeks after treatment
Procedure: as §2

[8] = test system: garden radish; test: Experiment 8 foliage treatment: garden radish; details: foliage spray of wettable powder suspension, evaluated 4 weeks after treatment
Procedure: as §2

[9] = test system: aobiyu (slender amaranth, Amaranthus viridis); test: Experiment 8 foliage treatment: aobiyu; details: foliage spray of wettable powder suspension, evaluated 4 weeks after treatment
Procedure: as §2

[10] = test system: mehishiba (henry crabgrass, Digitaria cliaris); test: Experiment 8 foliage treatment: mehishiba; details: foliage spray of wettable powder suspension, evaluated 4 weeks after treatment
Procedure: as §2

[11] = test system: ichibi (velvetleaf, Abutilon theophrasti); test: Experiment 9 foliage treatment: ichibi; details: foliage spray of wettable powder suspension, evaluated 4 weeks after treatment
Procedure: as §2, with “ichibi (velvetleaf, Abutilon theophrasti), onamomi (heartleaf cocklebur, Xanthium strumarium) (4L stage), noasagao (blue morningglory, Ipomoea indica)” for “rice, cockspur (Panicum crus-galli), garden radish, aobiyu (slender amaranth, Amaranthus viridis)”, “ooinutade (pale smartweed, Persicaria lapathifolia)” for “mehishiba (henry crabgrass, Digitaria cliaris)”, “1/8850” for “1/15500”, “as” for “as to”

[12] = test system: onamomi (heartleaf cocklebur, Xanthium strumarium); test: Experiment 9 foliage treatment: onamomi; details: foliage spray of wettable powder suspension, evaluated 4 weeks after treatment
Procedure: as §2, with “ichibi (velvetleaf, Abutilon theophrasti), onamomi (heartleaf cocklebur, Xanthium strumarium) (4L stage), noasagao (blue morningglory, Ipomoea indica)” for “rice, cockspur (Panicum crus-galli), garden radish, aobiyu (slender amaranth, Amaranthus viridis)”, “ooinutade (pale smartweed, Persicaria lapathifolia)” for “mehishiba (henry crabgrass, Digitaria cliaris)”, “1/8850” for “1/15500”, “as” for “as to”

[13] = test system: noasagao (blue morningglory, Ipomoea indica); test: Experiment 9 foliage treatment: noasagao; details: foliage spray of wettable powder suspension, evaluated 4 weeks after treatment
Procedure: as §2, with “ichibi (velvetleaf, Abutilon theophrasti), onamomi (heartleaf cocklebur, Xanthium strumarium) (4L stage), noasagao (blue morningglory, Ipomoea indica)” for “rice, cockspur (Panicum crus-galli), garden radish, aobiyu (slender amaranth, Amaranthus viridis)”, “ooinutade (pale smartweed, Persicaria lapathifolia)” for “mehishiba (henry crabgrass, Digitaria cliaris)”, “1/8850” for “1/15500”, “as” for “as to”

[14] = test system: ooinutade (pale smartweed, Persicaria lapathifolia); test: Experiment 9 foliage treatment: ooinutade; details: foliage spray of wettable powder suspension, evaluated 4 weeks after treatment
Procedure: as §2, with “ichibi (velvetleaf, Abutilon theophrasti), onamomi (heartleaf cocklebur, Xanthium strumarium) (4L stage), noasagao (blue morningglory, Ipomoea indica)” for “rice, cockspur (Panicum crus-galli), garden radish, aobiyu (slender amaranth, Amaranthus viridis)”, “ooinutade (pale smartweed, Persicaria lapathifolia)” for “mehishiba (henry crabgrass, Digitaria cliaris)”, “1/8850” for “1/15500”, “as” for “as to”

SMILES	Injury of Paddy ([1]; 6.25 g/10a)	Injury of Paddy ([1]; 12.5 g/10a)	Herbicidal Effect nobie ([2]; 6.25 g/10a)	Herbicidal Effect nobie ([2]; 12.5 g/10a)	Herbicidal Effect broad-leaved weed ([3]; 6.25 g/10a)	Herbicidal Effect broad-leaved weed ([3]; 12.5 g/10a)	Herbicidal Effect hotarui ([4]; 6.25 g/10a)	Herbicidal Effect hotarui ([4]; 12.5 g/10a)	Herbicidal Effect tamagayatsuri ([5]; 6.25 g/10a)	Herbicidal Effect tamagayatsuri ([5]; 12.5 g/10a)	Herbicidal Effect rice ([6]; 40 g/10a)	Herbicidal Effect rice ([6]; 80 g/10a)	Herbicidal Effect cockspur ([7]; 40 g/10a)	Herbicidal Effect cockspur ([7]; 80 g/10a)	Herbicidal Effect garden radish ([8]; 40 g/10a)	Herbicidal Effect garden radish ([8]; 80 g/10a)	Herbicidal Effect aobiyu ([9]; 40 g/10a)	Herbicidal Effect aobiyu ([9]; 80 g/10a)	Herbicidal Effect mehishiba ([10]; 40 g/10a)	Herbicidal Effect mehishiba ([10]; 80 g/10a)	other results
C#CC(C)Oc1cc(N(C(=O)C2=C(C(=O)OC)CCCC2)C(=O)c2cccs2)c(F)cc1Cl (racemic) [compound 91, N-[4-chloro-2-fluoro-5-(1-methylproparzyloxy)phenyl]-N-(2-thiophenecarboxy)-3,4,5,6-tetrahydrophthalamic acid methyl ester]	0	0.5	5	5	5	5	4	5	5	5	1	1	1	1	5	5	5	5	1	1	Herbicidal Effet ichibi ([11]; 4 g/10a): 5; Herbicidal Effet ichibi ([11]; 8 g/10a): 5; Herbicidal Effet onamomi ([12]; 4 g/10a): 4; Herbicidal Effet onamomi ([12]; 8 g/10a): 5; Herbicidal Effet noasagao ([13]; 4 g/10a): 4; Herbicidal Effet noasagao ([13]; 8 g/10a): 5; Herbicidal Effet ooinutade ([14]; 4 g/10a): 5; Herbicidal Effet ooinutade ([14]; 8 g/10a): 5
C#CC(C)Oc1cc(N(C(=O)C2=C(C(=O)OC)CCCC2)C(=O)c2ccsc2)c(F)cc1Cl (stereo not shown) [Compound No. 100]	0.5	0.5	5	5	5	5	5	5	5	5	1	1	1	1	5	5	5	5	1	1	Herbicidal Effet ichibi ([11]; 4 g/10a): 5; Herbicidal Effet ichibi ([11]; 8 g/10a): 5; Herbicidal Effet onamomi ([12]; 4 g/10a): 5; Herbicidal Effet onamomi ([12]; 8 g/10a): 5; Herbicidal Effet noasagao ([13]; 4 g/10a): 5; Herbicidal Effet noasagao ([13]; 8 g/10a): 5; Herbicidal Effet ooinutade ([14]; 4 g/10a): 5; Herbicidal Effet ooinutade ([14]; 8 g/10a): 5
C#CC(C)Oc1cc(N(C(=O)C2=C(C(=O)OC)CCCC2)C(=O)c2ccc(Cl)s2)c(F)cc1Cl (stereo not shown) [compound 97]	0	0	5	5	5	5	4	4	4	4	1	1	1	1	5	5	4	5	1	1	Herbicidal Effet ichibi ([11]; 4 g/10a): 5; Herbicidal Effet ichibi ([11]; 8 g/10a): 5; Herbicidal Effet onamomi ([12]; 4 g/10a): 4; Herbicidal Effet onamomi ([12]; 8 g/10a): 4; Herbicidal Effet noasagao ([13]; 4 g/10a): 4; Herbicidal Effet noasagao ([13]; 8 g/10a): 4; Herbicidal Effet ooinutade ([14]; 4 g/10a): 4; Herbicidal Effet ooinutade ([14]; 8 g/10a): 5
C#CC(C)Oc1cc(N(C(=O)C2=C(C(=O)OCCCC)CCCC2)C(=O)c2ccsc2)c(F)cc1Cl (stereo not shown) [compound 102]	0.5	0.5	5	5	5	5	4	4	5	5	1	1	1	1	5	5	5	5	1	1	Herbicidal Effet ichibi ([11]; 4 g/10a): 5; Herbicidal Effet ichibi ([11]; 8 g/10a): 5; Herbicidal Effet onamomi ([12]; 4 g/10a): 5; Herbicidal Effet onamomi ([12]; 8 g/10a): 5; Herbicidal Effet noasagao ([13]; 4 g/10a): 4; Herbicidal Effet noasagao ([13]; 8 g/10a): 5; Herbicidal Effet ooinutade ([14]; 4 g/10a): 4; Herbicidal Effet ooinutade ([14]; 8 g/10a): 5
